Each compound was assayed against human Nav1.7 (Homo sapiens (Human), UniProt Q15858) (assay: FLIPR or FLIPR TETRA sodium dye assay with KCl and test article pre-incubation). Details: read-out: Nav1.7 IC50 (μM) ± SEM.
Format: cell-based

Chain of human Nav1.7 (Q15858 other isoform, or with tags, fused parts or gaps): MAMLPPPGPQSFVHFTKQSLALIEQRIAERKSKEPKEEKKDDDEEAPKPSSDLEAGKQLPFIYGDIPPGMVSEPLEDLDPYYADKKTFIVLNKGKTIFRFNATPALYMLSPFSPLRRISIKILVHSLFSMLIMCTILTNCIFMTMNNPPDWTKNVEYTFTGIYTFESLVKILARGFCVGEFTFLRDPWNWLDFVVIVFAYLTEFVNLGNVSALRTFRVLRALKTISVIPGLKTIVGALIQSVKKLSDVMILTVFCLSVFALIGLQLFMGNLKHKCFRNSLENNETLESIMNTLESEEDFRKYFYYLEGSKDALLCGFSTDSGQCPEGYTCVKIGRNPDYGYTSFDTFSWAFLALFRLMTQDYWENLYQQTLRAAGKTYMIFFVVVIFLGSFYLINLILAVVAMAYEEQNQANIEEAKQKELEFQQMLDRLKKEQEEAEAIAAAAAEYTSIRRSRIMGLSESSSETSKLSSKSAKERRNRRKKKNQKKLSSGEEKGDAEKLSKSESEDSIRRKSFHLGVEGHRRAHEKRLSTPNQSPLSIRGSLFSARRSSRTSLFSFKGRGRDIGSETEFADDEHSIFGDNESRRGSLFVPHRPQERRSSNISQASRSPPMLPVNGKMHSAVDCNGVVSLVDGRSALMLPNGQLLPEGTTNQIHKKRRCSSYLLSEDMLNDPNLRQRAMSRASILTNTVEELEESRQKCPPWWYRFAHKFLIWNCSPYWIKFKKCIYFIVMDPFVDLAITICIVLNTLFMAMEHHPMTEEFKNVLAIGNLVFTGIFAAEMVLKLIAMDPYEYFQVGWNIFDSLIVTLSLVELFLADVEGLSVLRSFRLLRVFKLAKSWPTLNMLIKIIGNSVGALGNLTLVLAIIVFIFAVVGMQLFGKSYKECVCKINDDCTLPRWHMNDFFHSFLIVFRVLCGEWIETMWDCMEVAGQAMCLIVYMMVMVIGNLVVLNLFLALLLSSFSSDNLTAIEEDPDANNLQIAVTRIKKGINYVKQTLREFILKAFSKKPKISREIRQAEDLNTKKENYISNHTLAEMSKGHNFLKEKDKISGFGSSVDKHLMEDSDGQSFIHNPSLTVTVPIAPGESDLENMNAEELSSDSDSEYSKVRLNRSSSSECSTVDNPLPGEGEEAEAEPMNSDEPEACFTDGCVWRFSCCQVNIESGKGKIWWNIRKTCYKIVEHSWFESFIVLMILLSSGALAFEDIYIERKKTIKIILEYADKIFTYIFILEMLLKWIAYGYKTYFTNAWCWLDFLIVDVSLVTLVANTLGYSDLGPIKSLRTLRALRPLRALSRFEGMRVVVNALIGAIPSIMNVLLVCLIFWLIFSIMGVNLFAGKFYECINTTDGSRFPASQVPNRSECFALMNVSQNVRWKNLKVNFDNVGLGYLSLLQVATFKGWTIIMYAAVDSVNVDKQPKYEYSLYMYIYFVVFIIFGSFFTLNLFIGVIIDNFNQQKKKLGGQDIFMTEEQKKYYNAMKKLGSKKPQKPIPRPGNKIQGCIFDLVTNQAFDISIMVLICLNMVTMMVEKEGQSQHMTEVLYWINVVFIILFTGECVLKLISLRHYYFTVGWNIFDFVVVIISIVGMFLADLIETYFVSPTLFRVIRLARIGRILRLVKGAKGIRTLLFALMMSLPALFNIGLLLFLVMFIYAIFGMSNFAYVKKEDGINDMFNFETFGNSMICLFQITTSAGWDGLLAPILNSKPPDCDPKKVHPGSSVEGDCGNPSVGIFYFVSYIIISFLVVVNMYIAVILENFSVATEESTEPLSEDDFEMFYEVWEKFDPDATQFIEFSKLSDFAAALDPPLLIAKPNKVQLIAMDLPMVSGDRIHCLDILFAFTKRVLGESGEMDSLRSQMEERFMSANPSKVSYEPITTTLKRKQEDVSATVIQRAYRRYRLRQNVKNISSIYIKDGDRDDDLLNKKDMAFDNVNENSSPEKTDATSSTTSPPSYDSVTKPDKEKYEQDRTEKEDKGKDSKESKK

| SMILES | IC50 [µM] |
| --- | --- |
| OC[C@H](O)c1cccc(-c2ccc(Oc3ccc(C(F)(F)F)cc3)cc2)n1 [compound 5, (R)-1-(6-(4-(4-(trifluoromethyl)phenoxy)phenyl)pyridin-2-yl)ethane-1,2-diol] | 0.16 ± 0.07 |
| NC(=O)c1cc(-c2ccc(-c3ccc(F)cc3)cc2)cc([C@H](O)CO)n1 [compound 160, 6-((S)-1,2-Dihydroxy-ethyl)-4-(4′-fluoro-biphenyl-4-yl)pyridine-2-carboxylic acid amide] | 0.49 ± 0.12 |
| C[C@H](Nc1cc(C(N)=O)nc(-c2ccc(Oc3ccc(F)cc3)cc2)c1)C(N)=O [compound 167, (S)-4-((1-amino-1-oxopropan-2-yl)amino)-6-(4-(4-fluorophenoxy)phenyl) picolinamide] | 0.73 ± 0.1 |

Same assay, conditions: recombinant human Nav1.7 in HEK293 cells; CoroNa Green sodium dye; veratridine + scorpion venom; read-out: Nav1.7 IC50 (μM) ± SEM

| SMILES | IC50 [µM] |
| --- | --- |
| NC(=O)c1cc([C@@H](O)CO)cc(-c2ccc(Oc3ccc(Cl)cc3F)cc2)n1 [compound 141, (R)-6-(4-(4-chloro-2-fluorophenoxy)phenyl)-4-(1,2-dihydroxyethyl) picolinamide] | 0.07 ± 0.01 |
| NC(=O)c1cc([C@@H](O)CO)cc(-c2cccc(Oc3ccc(F)cc3)c2)n1 [compound 142, 4-((R)-1,2-dihydroxy-ethyl)-6-[3-(4-fluoro-phenoxy)-phenyl]-pyridine-2-carboxylic acid amide] | 5.3 ± 1.6 |
| NC(=O)c1cc(-c2ccc(Oc3ccc(F)cc3)cc2)cc(N(CC(=O)O)c2ccccc2)n1 [compound 143, ({6-Carbamoyl-4-[4-(4-fluoro-phenoxy)-phenyl]-pyridin-2-yl}phenyl-amino)-acetic acid] | > 20 |
| NC(=O)c1cc(-c2ccc(Oc3ccc(F)cc3)cc2)cc(N(CCC(=O)O)c2ccccc2)n1 [compound 144, 3-({6-Carbamoyl-4-[4-(4-fluoro-phenoxy)-phenyl]-pyridin-2-yl}phenyl-amino)-propionic acid] | > 20 |
| NC(=O)c1cc(N(CCC(=O)O)c2ccccc2)cc(-c2ccc(Oc3ccc(F)cc3)cc2)n1 [compound 145, 3-({2-Carbamoyl-6-[4-(4-fluoro-phenoxy)-phenyl]-pyridin-4-yl}phenyl-amino)-propionic acid] | 1.25 ± 0.03 |
| CN(c1ccccc1)c1cc(-c2ccc(Oc3ccc(C#N)cc3)cc2)cc(C(N)=O)n1 [compound 146, 4-[4-(4-Cyano-phenoxy)-phenyl]-6-(methyl-phenyl-amino)-pyridine2-carboxylic acid amide] | 0.09 ± 0.004 |
| CN(c1ccccc1)c1cc(C(N)=O)nc(-c2ccc(Oc3ccc(C#N)cc3)cc2)c1 [compound 147, 6-[4-(4-Cyano-phenoxy)-phenyl]-4-(methyl-phenyl-amino)-pyridine-2-carboxylic acid amide] | 1.6 ± 0.26 |
| CN(c1ccccc1)c1cc(-c2ccc(Oc3ccc(C(F)(F)F)cc3)cc2)cc(C(N)=O)n1 [compound 148, 6-(Methyl-phenyl-amino)-4-[4-(4-trifluoromethyl-phenoxy)phenyl]-pyridine-2-carboxylic acid amide] | 0.25 ± 0.08 |
| CN(c1ccccc1)c1cc(C(N)=O)nc(-c2ccc(Oc3ccc(C(F)(F)F)cc3)cc2)c1 [compound 149, 4-(Methyl-phenyl-amino)-6-[4-(4-trifluoromethyl-phenoxy)phenyl]-pyridine-2-carboxylic acid amide] | 10 to 20 |
| NC(=O)c1cc(N(CCc2nn[nH]n2)c2ccccc2)cc(-c2ccc(Oc3ccc(F)cc3)cc2)n1 [compound 150, 6-[4-(4-Fluoro-phenoxy)-phenyl]-4-{phenyl-[2-(2H-tetrazol-5-yl)-ethyl]-amino}-pyridine-2-carboxylic acid amide] | 0.46 ± 0.04 |
| NC(=O)c1cc(-c2ccc(Oc3ccc(F)cc3)cc2)cc(N(CCc2nn[nH]n2)c2ccccc2)n1 [compound 151, 4-[4-(4-Fluoro-phenoxy)-phenyl]-6-{phenyl-[2-(2H-tetrazol-5-yl)-ethyl]-amino}-pyridine-2-carboxylic acid amide] | 0.16 ± 0.03 |
| O=C(O)c1cc(N(CCc2nn[nH]n2)c2ccccc2)cc(-c2ccc(Oc3ccc(F)cc3)cc2)n1 [compound 152, 6-[4-(4-Fluoro-phenoxy)-phenyl]-4-{phenyl-[2-(2H-tetrazol-5-yl)ethyl]-amino}-pyridine-2-carboxylic acid] | 1.87 ± 0.68 |
| O=C(O)c1cc(-c2ccc(Oc3ccc(F)cc3)cc2)cc(N(CCc2nn[nH]n2)c2ccccc2)n1 [compound 153, 4-[4-(4-Fluoro-phenoxy)-phenyl]-6-{phenyl-[2-(2H-tetrazol-5-yl)ethyl]-amino}-pyridine-2-carboxylic acid] | 2.13 ± 0.55 |
| NC(=O)c1cc([C@H](O)CO)cc(-c2ccc(-c3ccc(F)cc3)cc2)n1 [compound 154, 4-((S)-1,2-Dihydroxy-ethyl)-6-(4′-fluoro-biphenyl-4-yl)pyridine-2-carboxylic acid amide] | 1.12 ± 0.07 |
| NC(=O)c1cc([C@@H](O)CO)cc(-c2ccc(-c3ccc(F)cc3)cc2)n1 [compound 155, 4-((R)-1,2-Dihydroxy-ethyl)-6-(4′-fluoro-biphenyl-4-yl)pyridine-2-carboxylic acid amide] | 2.78 ± 0.61 |
| NC(=O)c1cc(-c2ccc(Oc3ccc(OC(F)(F)F)cc3)cc2)cc([C@H](O)CO)n1 [compound 156, 6-((S)-1,2-Dihydroxy-ethyl)-4-[4-(4-trifluoromethoxy-phenoxy)phenyl]-pyridine-2-carboxylic acid amide] | 0.13 ± 0.02 |
| NC(=O)c1cc(-c2ccc(Oc3ccc(OC(F)(F)F)cc3)cc2)cc([C@@H](O)CO)n1 [compound 157, 6-((R)-1,2-Dihydroxy-ethyl)-4-[4-(4-trifluoromethoxy-phenoxy)phenyl]-pyridine-2-carboxylic acid amide] | 0.12 ± 0.008 |
| NC(=O)c1cc(-c2ccc(Oc3cccc(OC(F)(F)F)c3)cc2)cc([C@H](O)CO)n1 [compound 158, 6-((S)-1,2-Dihydroxy-ethyl)-4-[4-(3-trifluoromethoxy-phenoxy)phenyl]-pyridine-2-carboxylic acid amide] | 0.16 ± 0.01 |
| NC(=O)c1cc([C@H](O)CO)cc(-c2ccc(Oc3ccc(OC(F)(F)F)cc3)cc2)n1 [compound 159, 4-((S)-1,2-Dihydroxy-ethyl)-6-[4-(4-trifluoromethoxy-phenoxy)phenyl]-pyridine-2-carboxylic acid amide] | 0.3 ± 0.02 |
| NC(=O)c1cc([C@@H](O)CO)cc(-c2ccc(Oc3ccc(OC(F)(F)F)cc3)cc2)n1 [compound 161, 4-((R)-1,2-Dihydroxy-ethyl)-6-[4-(4-trifluoromethoxy-phenoxy)phenyl]-pyridine-2-carboxylic acid amide] | 1.38 ± 0.2 |
| NC(=O)c1cc([C@H](O)CO)cc(-c2ccc(Oc3cccc(OC(F)(F)F)c3)cc2)n1 [compound 163, 4-((S)-1,2-Dihydroxy-ethyl)-6-[4-(3-trifluoromethoxy-phenoxy)phenyl]-pyridine-2-carboxylic acid amide] | 0.63 ± 0.07 |
| NC(=O)c1cc([C@@H](O)CO)cc(-c2ccc(Oc3cccc(OC(F)(F)F)c3)cc2)n1 [compound 164, 4-((R)-1,2-Dihydroxy-ethyl)-6-[4-(3-trifluoromethoxy-phenoxy)phenyl]-pyridine-2-carboxylic acid amide] | 0.49 ± 0.1 |
| C[C@H](Nc1cc(C#N)nc(-c2ccc(Oc3ccc(F)cc3)cc2)c1)C(N)=O [compound 165, (S)-2-((2-cyano-6-(4-(4-fluorophenoxy)phenyl)pyridin-4-yl)amino)propanamide] | 1.97 ± 0.49 |
| C[C@H](Nc1cc(C#N)cc(-c2ccc(Oc3ccc(F)cc3)cc2)n1)C(N)=O [compound 166, (S)-2-((4-cyano-6-(4-(4-fluorophenoxy)phenyl)pyridin-2-yl)amino)propanamide] | 4.32 ± 1 |

Each compound was assayed on neuropathic hyperalgesia in rats (assay: Seltzer model (partial sciatic nerve ligation) of neuropathic pain, paw withdrawal threshold). Details: 30 mg/kg p.o., rat, Seltzer model; assessed 1, 3 and 5 h after administration.
Format: in vivo
Protocol: Test Animals: Each experiment uses rats weighing between 200-260 g at the start of the experiment. The rats are group-housed and have free access to food and water at all times, except prior to oral administration of a test compound when food is removed for 16 hours before dosing. A control group acts as a comparison to rats treated with a compound of Formulae I-XXXIII. The control group is administered the carrier as used for the test compound. The volume of carrier administered to the control group is the same as the volume of carrier and test compound administered to the test group.
In the Seltzer model, the partial sciatic nerve ligation model of neuropathic pain was used to produce neuropathic hyperalgesia in rats (Seltzer et al., Pain 43:205-218 (1990)). Partial ligation of the left sciatic nerve was performed under inhalation anesthesia, e.g., isoflurane/O2. Following induction of anesthesia, the left thigh of the rat was shaved and the sciatic nerve exposed at high thigh level through a small incision and was carefully cleared of surrounding connective tissues at a site near the trocanther just distal to the point at which the posterior biceps semitendinosus nerve branches off of the common sciatic nerve. A 7-0 silk suture was inserted into the nerve, e.g., with a ⅜ curved, reversed-cutting mini-needle, and tightly ligated so that the dorsal ⅓ to ½ of the nerve thickness was held within the ligature. The wound was closed, e.g., with a single muscle suture (4-0 nylon (Vicryl)) and vetbond tissue glue. Following surgery, the wound area was dusted with antibiotic powder. Sham-treated rats undergo an identical surgical procedure except that the sciatic nerve is not manipulated. Following surgery, animals were weighed and placed on a warm pad until they recovered from anesthesia. Animals were then returned to their home cages until behavioral testing began. The animals were assessed for response to noxious mechanical stimuli by determining PWT, as described below, prior to surgery (baseline), then immediately prior to and 1, 3, and 5 hours after drug administration for rear paw of the animal. Percentage reversal of neuropathic hyperalgesia is defined as: […]
The following compounds were tested and produced a statistically significant increase in paw withdrawal threshold when administered at 30 mg/kg p.o. in the Seltzer model of neuropathic pain at the time points indicated:
Mechanical Hyperalgesia: Sensitivity to noxious mechanical stimuli can be measured in animals using the paw pressure test to assess mechanical hyperalgesia. In rats, hind paw withdrawal thresholds (“PWT”), measured in grams, in response to a noxious mechanical stimulus are determined using an analgesymeter (Model 7200, commercially available from Ugo Basile of Italy), as described in Stein (Biochemistry & Behavior 31: 451-455 (1988)). The rat's paw is placed on a small platform, and weight is applied in a graded manner up to a maximum of 250 grams. The endpoint is taken as the weight at which the paw is completely withdrawn. PWT is determined once for each rat at each time point. PWT can be measured only in the injured paw, or in both the injured and non-injured paw. In one non-limiting embodiment, mechanical hyperalgesia associated with nerve injury induced pain (neuropathic pain) can be assessed in rats. Rats are tested prior to surgery to determine a baseline, or normal, PWT. Rats are tested again 2 to 3 weeks post-surgery, prior to, and at different times after (e.g. 1, 3, 5 and 24 hr) drug administration.

| SMILES | Time post-dose (h) with statistically significant increase in paw withdrawal threshold [h] |
| --- | --- |
| OC[C@H](O)c1cccc(-c2ccc(Oc3ccc(C(F)(F)F)cc3)cc2)n1 [compound 5, (R)-1-(6-(4-(4-(trifluoromethyl)phenoxy)phenyl)pyridin-2-yl)ethane-1,2-diol] | 1 |
| NC(=O)c1cc([C@@H](O)CO)cc(-c2ccc(Oc3ccc(F)cc3)cc2)n1 [compound 40, (R)-4-(1,2-dihydroxyethyl)-6-(4-(4-fluorophenoxy)phenyl)picolinamide] | 1 |

Reference: patent publication US9056832B2, “Pyridine compounds and the users thereof” (Purdue Pharma L.P., priority 2010, dated 2015)
